Test results: patent US9682060B2, “Small molecules that induce intrinsic pathway apoptosis” (The Board of Trustees of the University of Illinois, priority 2015, dated 2017)
Entries after “also recorded” stand apart in the source; their conditions may differ.

What was measured:
[1] = system: various cancer and non-cancerous cell lines; assay: 24 hour IC50 across various cancer and non-cancerous cell lines; type: cell-based; settings: various cancer and non-cancerous cell lines (Table 1, FIG. 4D)
Description: MTS Assay for Suspension Cells.
Serial dilutions of compound in 100% DMSO were added in triplicate (2 μL to each well) to empty wells of a 96-well plate. Suspension cells (HL-60, U-937, SKW 6.4, Jurkat W T, Jurkat CASP8^−/−, Jurkat FADD^−/−, Jurkat Bcl-2) cells in RPMI 1640 media were added to 96-well plates (198 μL containing 4×10^4 cells) and the cells incubated for 24 hours.
Sulforhodamine B Assay for Adherent Cells.
Serial dilutions of compound in 100% DMSO were added in triplicate (2 μL to each well) to empty wells of a 96-well plate. Adherent cells (3T3, Hs888Lu, MCF-7, HeLa, WT-MEF, 4T1, B16-F10, SK-MEL-5, MIA PaCa2, BT-549, MDA-MB-436, 143B, HOS, H460, H1993) cells were added to each well (5×10^3 cells in 198 μL of RPMI 1640, DMEM or EMEM media). The plates were incubated for 24 hours. The media was removed from the plate and ice-cold trichloroacetic acid (100 μL of 10% w/v trichloroacetic acid) was added to the plates which were then incubated at 4° C. overnight to fix the cells. […] The bound dye was released by the addition of unbuffered Tris-base (200 μL of 10 mM solution) and after a 30 min incubation at room temperature the absorbance at 510 nm was measured (Molecular Devices SpectraMax Plus 384 plate reader). The mean IC50 values and standard deviations were determined from three independent experiments.

U-937 cells [2] = assay: Immunoblotting of caspase activation and PARP-1 cleavage; type: cell-based, Human; settings: 10 μM
Description: (§1) U-937 cells (3×10^6 cells in 2 mL RPMI) or SKW 6.4 cells (5×10^6 cells in 2 mL RPMI) were treated with compound (1% final DMSO v/v) for the appropriate period of time. After centrifugation and washing with PBS, cells were lysed with RIPA lysis buffer containing protease cocktail inhibitor III (Calbiochem) and cell debris removed by centrifugation (16000×g 5 min). The lysate concentrations were normalized after determination of protein concentration by the Bradford assay and whole cell lysate (40-60 μg) was resolved by 4-20% gradient SDS-PAGE gel electrophoresis at 120 V for 70 min after which proteins were transferred onto PVDF membranes (60 V for 2 hours) and blocked in 5% BSA or fat-free milk in TBST (as per primary antibody manufacturer's instructions) overnight at 4° C. The membranes were blotted for molecules of interest with primary antibody (1:1000 in 5% BSA or milk in TBST) overnight at 4° C. The bound primary antibodies were detected using appropriate secondary HRP conjugated antibodies (1:5000 in TBST) for 1 hour at room temperature and visualized by ECL autoradiography or with an Image Quant LAS 4010. The membranes were stripped in acidic methanol, blocked and re-probed as necessary.
Induction of Necroptosis and Observation of Phospho-MLKL by Immunoblot.
[…]. Cells were then treated with TNFα (10 ng/ml) in the presence of cycloheximide (20 μg/ml) for (1% final DMSO v/v) for the appropriate period of time. After centrifugation and washing with PBS, cells were lysed with RIPA lysis buffer containing protease cocktail inhibitor III (Calbiochem) and Phosphatase Inhibitor IV (BioVision). Samples were further processed for immunblot analysis as described above.

SKW 6.4 cells = assay: Immunoblotting of caspase activation; type: cell-based, Human; settings: 10 μM
Description: as §1

[3] = type: in vivo, C57BL/6 mice; settings: mice; single-dose intravenous 15-60 mg/kg
Description: Pharmacokinetics and Toxicity Profiling in Mice.
All animal studies were performed with prior approval by the University of Illinois at Urbana-Champaign IACUC committee. Eight week old female C57BL/6 mice were used for all pharmacokinetic and toxicity experiments. […]. For toxicity assessment, Raptinal was administered intravenously as a single-dose injection across a dose range of 15-60 mg/kg, and mice were sacrificed 7 days post-injection for evidence of hematologic toxicity (n=3 mice/group).

U-937 cells [4] = type: cell-based, Human; settings: 20 minute treatment, dihydroethidium, flow cytometry
Description: Measurement of Cellular ROS Production.
U-937 cells (1 mL of 5×10^5 cells/mL) in Hank's buffered salt solution (HBSS) containing 5 mM glucose were treated with DMSO, 2 or 10 μM Raptinal, 10 μM thapsigargin, 100 μM etoposide (1% DMSO final) and incubated in the presence of 5 μM dihydroethidium a 37° C., 5% CO2 incubator for 20 minutes. […]. The levels of ethidium were assessed by flow cytometry. Live cells were analyzed based on gating on the forward and side scatter properties and the geometric mean of ethidium staining was determined using the software FCS Express.

U-937 cells [5] = assay: Cell morphology by light, scanning electron and transmission electron microscopy; type: cell-based, Human; settings: 10 μM
Description: Cell Morphology by Light Microscopy.
Phase contrast images of U-937 cells treated with 10 μM Raptinal were taken with an Olympus DP-21 microscope digital camera. The cells were kept warm between images by returning the plate to the 37° C. incubator.
Scanning Electron Microscopy.
U-937 cells (4×10^6 cells in 8 mL 0.45 micron-filtered cell culture media) were treated with 1% DMSO) or 10 μM Raptinal in 10 cm culture dishes for 60 minutes. The cells were centrifuged (250×g, 5 min) and the media aspirated. Ice-cold Karnovsky's fixative (1 mL of 0.45 micron filtered) was added to the cell pellet which was resuspended by gently agitation. The cells were fixed overnight at 4° C. and submitted for scanning electron microscopy (SEM) sample processing. The cells were stained with OsO4, placed on filter paper and dehydrated. After mounting, the cells were coated with Pd/Au and scanning electron microscopy was performed.
Transmission Electron Microscopy.
U-937 cells (4 mL of 5×10^5 cells/ml) were treated with DMSO or 10 μM of Raptinal for 5, 30, and 60 minutes. The cells were centrifuged 400×g for 5 min and the media aspirated. The cells were fixed by the addition of Karnovsky's fixing solution (0.5 mL) and placed in a 4° C. fridge overnight. The next day, the cells were microwave fixed, stained with 2% OsO4, washed with 3% KCN and enbloc stained with uranyl acetate. The samples were dehydrated with acetonitrile and ethanol, suspended in pure epoxy, and embedded overnight at 85° C. The embedded samples were cut into thick and then thin sections and these were mounted and viewed.

caspase-3/-7 = assay: Caspase activity assay in cell lysate (Ac-DEVD-AFC); type: cell-based; settings: 10 μM

SMILES: O=CC1(C2(C=O)c3ccccc3-c3ccccc32)c2ccccc2-c2ccccc21 [Raptinal, [9,9′]bifluorenyl-9,9′-dicarbaldehyde]
- IC50 [1]: 700 to 3400 nM
- time of activation of initiator caspase-9 (U-937 cells [2]): 20 min
- time to complete cleavage of procaspase-9, procaspase-8 and procaspase-3 (U-937 cells [2]): ≤ 45 min
- cleavage of procaspase-1 (pyroptosis/pyronecrosis) (U-937 cells [2]; Western blot): neither
- activation of procaspase-3 to caspase-3 (immunoblot) (U-937 cells [2]; one hour treatment): complete activation
- cleavage of PARP-1 (116 to 89 kDa form) (U-937 cells [2]; one hour, versus the other toxins): Significantly more abundant cleavage
- time of activation of initiator caspase-9 (SKW 6.4 cells): 20 min
- time to complete cleavage of procaspase-9, procaspase-8 and procaspase-3 (SKW 6.4 cells): ≤ 45 min
- procaspase-3 activation (immunoblot) (SKW 6.4 cells; one hour of exposure): the only agent capable of inducing procaspase-3 activation
- tolerability [3]: well tolerated
- production of reactive oxygen species (superoxide anion radicals) (U-937 cells [4]): rapid accumulation of superoxide anion radicals; also recorded: observed
- mitochondrial morphology (transmission electron microscopy) (U-937 cells [5]; after 5 minutes): substantial mitochondrial swelling
- blebbing (U-937 cells [5]; at 30 min): modest
- blebbing (U-937 cells [5]; at 60 min): extensive
- induction of caspase-3/-7 activity compared to other apoptosis inducing agents (caspase-3/-7): faster induction of caspase-3/-7 activity and higher peak levels
